The values below come from paper PMC6066355, “Probing the binding site of novel selective positive allosteric modulators at the M1 muscarinic acetylcholine receptor” (Biochemical Pharmacology, 2018).

What all share (assay): Whole cell [3H]NMS binding inhibition/interaction assay (ACh ± PAM), FlpIn CHO cells
One assay concerns the target T1, F77^2.56I M1 mAChR (Homo sapiens, UniProt P11229, F77I).
T1 construct: expressed in transfected cells
T1 sequence (P11229 1-460 F77I): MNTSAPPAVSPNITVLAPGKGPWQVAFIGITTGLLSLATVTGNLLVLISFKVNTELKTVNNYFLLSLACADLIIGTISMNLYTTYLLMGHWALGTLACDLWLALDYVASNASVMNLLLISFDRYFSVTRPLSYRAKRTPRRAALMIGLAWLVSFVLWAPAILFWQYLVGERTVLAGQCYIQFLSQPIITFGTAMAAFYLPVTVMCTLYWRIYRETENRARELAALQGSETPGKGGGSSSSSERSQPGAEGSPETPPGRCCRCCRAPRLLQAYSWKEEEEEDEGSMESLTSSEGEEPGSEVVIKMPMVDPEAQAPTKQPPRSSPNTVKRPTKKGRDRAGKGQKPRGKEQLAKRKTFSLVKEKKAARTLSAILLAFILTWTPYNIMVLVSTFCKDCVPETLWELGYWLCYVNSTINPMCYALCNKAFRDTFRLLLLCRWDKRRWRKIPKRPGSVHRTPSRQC
Particulars: for Logα NMS (logarithm of binding cooperativity between [3H]NMS and modulator): constrained to −2 where preferred model by F-test. As for the experimental part: (§1) Saturation binding assays were performed to estimate the expression levels and equilibrium dissociation constant of the radioligand (KD). FlpIn CHO cells stably expressing the WT or mutant c-myc hM1 mAChRs were plated at the density of 25,000 per well of 96-well white clear bottom Isoplates (PerkinElmer Life Sciences, Boston, MA), and grown overnight at 37 °C. […] Atropine at the final concentration of 100 µM was used to determine non-specific binding. The assays were terminated by rapid removal of the radioligand, and two washes with 100 µl/well ice-cold 0.9% NaCl buffer.
(§2) All data were analysed using GraphPad Prism 7 (San Diego, CA). […] Binding interaction studies between orthosteric agonists and allosteric modulators were fitted to the following allosteric ternary complex model (Eq. (1)):(1) Y=BmaxD/D+KDKB/α^′B+KB1+I/KI+B/KB+αIB/KIKB where Bmax is the total number of receptors, [D], [B] and [I] denote the concentrations of radioligand, allosteric ligand, and orthosteric ligand, respectively, and KD, KB and KI represent their respective equilibrium dissociation constants. α′ and α are the cooperativity factors between the allosteric ligand and radioligand or orthosteric ligand, respectively.

A further assay addresses T2, W400^7.35A M1 mAChR (Homo sapiens, UniProt P11229, W400A).
T2 construct: expressed in transfected cells
T2 sequence (P11229 1-460 W400A): T1 sequence (P11229 1-460 F77I) with I77F, W400A
Particulars: affinity and cooperativity could not be estimated. As for the experimental part: as §1, §2

The target of another assay is T3, Y179^ECL2A M1 mAChR (Homo sapiens, UniProt P11229, Y179A).
T3 construct: expressed in transfected cells
T3 sequence (P11229 1-460 Y179A): T1 sequence (P11229 1-460 F77I) with I77F, Y179A
Particulars: affinity and cooperativity could not be estimated. How it is done:
as §1, §2

The target of another assay is T4, WT M1 mAChR (Homo sapiens, UniProt P11229).
T4 construct: expressed in transfected cells
T4 sequence (P11229 1-460): T1 sequence (P11229 1-460 F77I) with I77F
Particulars: for Logα NMS (logarithm of binding cooperativity between [3H]NMS and modulator): constrained to −2 where preferred model by F-test. How it is done:
as §1, §2

Each structure is given as a SMILES string. Where a chain is given by its changes, count along the chain named. Like-named read-outs stand apart in the source and are kept apart here.

As for `Cn1cc(-c2ccc(COc3ccccc3-c3cc(=O)n(C4CCCCC4O)cn3)cc2)cn1` (stereo not drawn) [MIPS1780, 3-(2-hydroxycyclohexyl)-6-(2-((4-(1-methyl-1H-pyrazol-4-yl)-benzyl)oxy)phenyl)pyrimidin-4(3H)-one], the Kb on F77^2.56I M1 mAChR and on WT M1 mAChR was 661 nM throughout. Further, the “Logα ACh (logarithm of binding cooperativity between ACh and modulator)” value (from here on “Logα ACh”) at F77^2.56I M1 mAChR (F77^2.56I) was 1.60 ± 0.09; on WT M1 mAChR (WT), 1.60 ± 0.08. The “α ACh (binding cooperativity with ACh, antilog in brackets)” value on F77^2.56I M1 mAChR (F77^2.56I) amounted to 25.7. Moreover, the “Logα NMS (logarithm of binding cooperativity between [3H]NMS and modulator)” value (shortened to “Logα NMS”) on F77^2.56I M1 mAChR (F77^2.56I) and at WT M1 mAChR (WT) was “= −2” each time. The “Modulatory effect on ACh inhibition of [3H]NMS binding” value (“Modulatory effect on ACh inhibition” below) at W400^7.35A M1 mAChR and on Y179^ECL2A M1 mAChR was “completely abolished” in each case.

For the compound `Cc1cnc(C(=O)N[C@H]2CCOC[C@@H]2O)cc1Cc1ccc(-c2cscn2)cc1` [PF-06767832, N-((3R,4S)-3-hydroxytetrahydro-2H-pyran-4-yl)-5-methyl-4-(4-(thiazol-4-yl)benzyl)pyridine-2-carboxamide], on F77^2.56I M1 mAChR (F77^2.56I), the “Logα ACh” value is 1.83 ± 0.14; the “α ACh (binding cooperativity with ACh, antilog in brackets)” value was determined as 44.7; the “α NMS (binding cooperativity with [3H]NMS, antilog in brackets)” value is 0.06; the “Logα NMS” value is recorded as −1.02 ± 0.12. Also, the Kb on F77^2.56I M1 mAChR (F77^2.56I, allosteric ternary complex model, 0.3 nM [3H]NMS, read-out: pKB (negative logarithm of the allosteric modulator equilibrium dissociation constant) (converted)) is 417 nM. Besides, at W400^7.35A M1 mAChR, the “Modulatory effect on ACh inhibition” value is listed as “completely abolished”. In addition, on Y179^ECL2A M1 mAChR, the “Modulatory effect on ACh inhibition” value is on record as “completely abolished”. For the same compound, at WT M1 mAChR (WT), the “Logα ACh” value is listed as 1.40 ± 0.08; the “Logα NMS” value was −1.05 ± 0.06. Besides, the Kb at WT M1 mAChR (WT, allosteric ternary complex model, 0.3 nM [3H]NMS, read-out: pKB (negative logarithm of the allosteric modulator equilibrium dissociation constant) (converted)) was 309 nM.

With `Cn1cc(-c2ccc(Cn3cc(C(=O)N[C@H]4CCCC[C@@H]4O)c4c(F)cc(F)cc43)cn2)cn1` [VU6004256, 4,6-difluoro-N-(1S,2S)-2-hydroxycyclohexyl-1-((6-(1-methyl-1H-pyrazol-4-yl)pyridine-3-yl)methyl)-1H-indole-3-carboxamide], the figures for the Kb at F77^2.56I M1 mAChR and at WT M1 mAChR were 417 nM and 479 nM, respectively. Also, the “Logα NMS” value at F77^2.56I M1 mAChR (F77^2.56I) and at WT M1 mAChR (WT) was “= −2” throughout. Further, the “Modulatory effect on ACh inhibition” value at W400^7.35A M1 mAChR and at Y179^ECL2A M1 mAChR was “completely abolished” throughout. The “Logα ACh” value at WT M1 mAChR (WT) turned out to be 1.40 ± 0.09. In addition, the “α ACh (binding cooperativity with ACh, antilog in brackets)” value at WT M1 mAChR (WT) worked out at 15.5.
